This assay has as its system human bladder stroma fibroblasts. Nature of the assay: Cell work: fibroblast viability (prestoblue) after mitomycin C treatment. Format: cell-based. Particulars: 3 days of drug treatment. The protocol: FIGS. 13(A) and (B) are graphs showing (A) relative cell count vs MMC concentrations (μg/mL), and (B) dose-response curve.
In each well of a 96 well cell culture plate, 3000 human bladder stroma fibroblasts cells are seeded. After one day of seeding, different concentrations of mitomycin C dissolved in cell media (200 μL) were added to the well. After 3 days of drug treatment, the drug media was removed and the well added with 70 μL of a cell viability reagent, prestoblue, in the ratio of 9:1 (cell media: prestoblue).

Experimental findings from patent publication US11357651B2, “Stent assembly and method of preparing the stent assembly” (Nanyang Technological University, priority 2015, dated 2022) are described below.

With `CO[C@@]12[C@H](COC(N)=O)C3=C(C(=O)C(C)=C(N)C3=O)N1C[C@@H]1N[C@@H]12` [MMC, mitomycin C], the GI50 entry is listed as “about 0.115 μg/mL” and the “minimum concentration of MMC required to cause death of / inhibit proliferation of fibroblasts” value worked out at 0.01 µg/mL.
